One assay concerns the target T1, TDP-43 (Homo sapiens, UniProt Q13148).
T1 construct: added to whole cell lysate containing 5 mg protein; endogenous in cells; host or cells: MDA-MB-231 and PLC/PRF/5 whole cell lysates
Description: Solid phase compound-protein complex pull-down with mass spectrometry protein identification. In kind it is binding. Conditions: precipitated proteins from PLC/PRF/5 and MDA-MB-231 cell lysates. As to the method:
MDA-MB-231 and PLC/PRF/5 cells were maintained at 37° C. in a CO2 incubator in Dulbecco's Modified Eagle's Medium (DMEM) supplemented with 10% fetal bovine serum (FBS) and 1% of penicillin/streptomycin (Invitrogen).
The cells were lysed in lysis buffer containing 20 mM 4-(2-hydroxyethyl)-1-piperazineethanesulfonic acid (HEPES), pH 7.5, 0.3% 3-[(3-cholamidopropyl)dimethylammonio]-1-propanesulfonate (CHAPS), 150 mM NaCl, (Sigma-Aldrich), and protease inhibitor cocktail (Roche) with rotation at 4° C. for one hour followed by centrifugation at 15000 for 20 minutes. Ten milligrams of ALT-59 dissolved in DMSO at 20 mM were added to whole cell lysate containing 5 mg protein and incubated on ice for one hour. Compound precipitates out due to high hydrophobicity. Compound-protein complex were spun down at 1000 rpm and washed 5 times with lysis buffer to remove unbound protein. The compound-protein complex were boiled in SDS-PAGE protein sample buffer (1×) (80 mM Tris-HCl, pH 6.8, 2% SDS, 10% Glycerol, 0.1% Bromophenol blue.
For silver staining, proteins were separated on a 10% SDS-PAGE gel. To prepare samples for protein identification using mass spectrometry, protein samples were run into stacking gel and the electrophoresis was stopped after samples were compressed into single bands. […]

In the next assay the test system is LAMP2 pre-mRNA. Description: LAMP2 pre-mRNA alternative splicing, RT-PCR. In kind it is cell-based. Conditions: MDA-MB-231 cells, 6 μM ALT-59. Here is the method:
(§1) Long stretches of TG repeats are found in exon 9 and intron 9 of Lamp2 gene. A shorter stretch is located in intron 10. […] RT-PCR analysis was performed to test if ALT-59 treatment affects LAMP2 alternative splicing. MDA-MB-231 cells were cultured as described above and treated with DMSO or 6 μM ALT-59. Total RNA was extracted using the RNeasy Mini Kit (Qiagen) and equal amount of RNA was reverse transcribed using the SuperScript III First-Strand Synthesis System (Invitrogen). PCR reactions were performed using forward primer located on exon 1 and a reverse primer located on exon 11. PCR samples were resolved in a 1.2% agarose gel and stained with ethidium bromide.

In the next assay the test system is CFTR exon 9. Description: CFTR exon 9 splicing, RT-PCR. In kind it is cell-based. Conditions: MDA-MB-231 cells. As to the method: as §1
(§2) It has been reported that TDP-43 causes CFTR exon 9 skipping, ApoA2 exon 3 skipping, and POLDIP3 exon 3 inclusion. Additional experiments were performed to further confirm that TDP-43 is the target of ALT-59. RT-PCR analysis was performed as described above using the following primers for the three genes. PCR samples were analyzed by polyacrylamide gel electrophoresis and stained with ethidium bromide.

The test system of another assay is ApoA2 pre-mRNA. Description: ApoA2 pre-mRNA splicing, RT-PCR. In kind it is cell-based. Conditions: MDA-MB-231 cells, endogenous gene. As to the method:
as §1, §2

The subject of a further assay is CFTR. The experiment in a line: CFTR localization, immunofluorescence microscopy, U-87 MG cells. In kind it is cell-based. Particulars: 4 μM, 3 days. Here is the method: MDA-MB-231 and U-87 MG cells were cultured on cover slips under the conditions as described above. Cells were treated with DMSO or 4 μM ALT-59 for 3 days. Primary human bronchial epithelial cells isolated from cystic fibrosis patient homozygous for Phe508del-CFTR (Lifeline Cell Technology) were cultured on cover slips in BronchiaLife Cell Culture Medium supplemented with BrochiaLife LifeFactors Kit (Lifeline Cell Technology) and maintained at 37° C. in a CO2 incubator. Cells were treated with DMSO, 4 μM ALT-59, 2 μM ALT-308, or 4 μM ALT-410 for 3 days.
Cells were fixed in 4% paraformaldehyde for 15 minutes and permeabilized in 0.1% Triton X-100 for 2 minutes. After being blocked in 5% BSA (Sigma-Aldrich), cells were incubated with anti-CFTR antibody (Alomone Labs) followed by Alexa Fluor 488 anti-rabbit secondary antibody. Reagents were buffered in GIBCO PBS (Phosphate-Buffered Saline). Images were taken using Carl Zeiss LSM 510 Laser Scanning Microscope. Parameters were set identical for all images.

For assay [1], the system named is BACE1. Description: BACE1 expression, Western blot in T98G cells. The format is cell-based. Particulars: 2 days. Here is the method:
U-87 MG and T98G cells were maintained at 37° C. in a CO2 incubator in Dulbecco's Modified Eagle's Medium (DMEM) supplemented with 10% fetal bovine serum (FBS) and 1% of penicillin/streptomycin (Invitrogen). Cells were treated with DMSO, 3 μM, or 6 μM ALT-59 for 2 days and subjected to Western blotting analysis using the indicated antibodies. Protein bands were quantified using the ImageJ software.

The subject of assay [2] is BACE1. The experiment in a line: Screening for ALT-59 derivatives with BACE1 protein levels as indicator, U-87 MG cells. The format is cell-based. Particulars: 2 days, concentrations as indicated in FIGS. 15-17. As to the method:
Additional experiments were performed to screen for compounds with higher potency and the ability to penetrate blood brain barrier using BACE1 protein levels as an indicator. U-87 MG cells were cultured as described previously and treated for 2 days with compounds at concentrations as indicated in FIGS. 15-17. Cells were then subjected to Western blotting analysis using anti-BACE1 and anti-beta-actin antibodies.

The test system of assay [3] is transgenic C. elegans expressing full-length (wild-type) human TDP-43. The experiment in a line: Paralysis caused by hTDP-43 expression in C. elegans. The format is in vivo. Particulars: 10 μM ALT-59 in NGM plates. Here is the method: Wild-type N2 strain or transgenic C. elegans expressing full-length (wild-type) human TDP-43 (strain number, CL6049, Caenorhabditis Genetics Center, Minneapolis, Minn.) were placed on freshly prepared Nematode Growth Medium (NGM) petri plates with or without 10 μM ALT-59.
Uncoordinated phenotypes were imaged, and movement deficits were quantified by counting body thrashes in liquid after recording under an inverted microscope.

SMILES strings stand for the structures.

T1 sequence (Q13148 whole entry): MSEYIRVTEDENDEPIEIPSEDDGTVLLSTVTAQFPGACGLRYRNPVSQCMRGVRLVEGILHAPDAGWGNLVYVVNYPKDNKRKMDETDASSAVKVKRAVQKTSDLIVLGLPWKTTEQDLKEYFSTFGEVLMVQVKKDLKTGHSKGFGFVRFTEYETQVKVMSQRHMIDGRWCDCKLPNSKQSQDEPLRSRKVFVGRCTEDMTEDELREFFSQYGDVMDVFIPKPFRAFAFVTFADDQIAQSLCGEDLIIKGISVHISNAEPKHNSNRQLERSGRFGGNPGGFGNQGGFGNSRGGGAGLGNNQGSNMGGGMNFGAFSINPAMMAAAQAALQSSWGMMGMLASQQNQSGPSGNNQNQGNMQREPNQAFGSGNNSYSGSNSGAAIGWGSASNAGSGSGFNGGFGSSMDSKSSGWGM

As to `CN(C)c1ccc(C2Nc3ccc4ccccc4c3C3=C2C(=O)CC(C)(C)C3)cc1Br` (centres unmarked) [ALT-59, 5-(3-bromo-4-(dimethylamino)phenyl)-2,2-dimethyl-2,3,5,6-tetrahydrobenzo[a]phenanthridin-4(1H)-one], at TDP-43, the “ALT-59 binding proteins identified by mass spectrometry” value is on record as “TDP-43 (boxed) was ranked as the top hit”. Also, in the assay on LAMP2 pre-mRNA, the “level of LAMP2a mRNA” value was “reduces the level of LAMP2a mRNA” and the “level of LAMP2c mRNA” value was “increases the level of LAMP2c mRNA”. In the assay with CFTR exon 9, the “CFTR exon 9 inclusion” value is “capable of promoting CFTR exon 9 inclusion”. Moreover, in the assay on ApoA2 pre-mRNA, the ApoA2 splicing entry is recorded as “blocking ApoA2 splicing”. The CFTR localization entry in the assay on CFTR was “redistribution of CFTR from the perinuclear region to the plasma membrane”. Moreover, the “reduction of BACE1 expression” value in the assay on BACE1 [1] (3 μM) was determined as 31%. Also, the “reduction of BACE1 expression” value in the assay on BACE1 [1] (6 μM) is 53%. Moreover, the BACE1 protein expression entry in the assay with BACE1 [2] was “capable of lowering BACE1 expression”. Further, the “coiled body posture and uncoordinated phenotype” value in assay [3] was “rescued the coiled body posture and uncoordinated phenotype”. For the same compound, the percentage of paralysis in assay [3] (without treatment 93%) turned out to be 29.5%.

The values are drawn from patent US20230095021A1, “MODULATORS OF TDP-43” (Alteron Therapeutics, Inc., priority 2019, published 2023).
